According to patent publication US8110599B2 (priority 2006, dated 2012):
Converted amounts (≈) assume the structure as drawn. Like-named read-outs stand apart in the source and are kept apart here.

Key:
[1] = test system: S180 carcinoma
Description: S-180 cells were inoculated subcutaneously to mice at the axillary region at 0.5-1×10^6 cells/mouse. […] The drugs were given 6-8 times in total, one day spaced between two administrations for all the experiments. At the end of experiments, the tumors were removed and weighed, and the tumor inhibition ratio (TIR) was calculated. Pharmaceutical efficacy was considered with TIR≧40% and P<0.05, after statistical analysis.
The prepared solution was filtered through 0.45 and 0.22 μm membrane for sterilization, divided into stock aliquots, and stored at 4° C. for future use. The stock aliquot was further diluted with sterilized PBS (pH=7.4) to the required concentration before drug administration.
5-FU, CTX, and carboplatin solutions were freshly prepared in normal saline before use. […] Mice with the same sex were used in any individual experiment.
S180 cell line was from S180 bearing mice, and was intraperitoneally passaged in Kunming mouse.
Carcinoma inoculation and drug treatment: To each mouse, 0.2 ml of the S180 and H22 cell suspensions (2.5×10^6 cells/ml) were subcutaneously injected into the right axillary region (a total of 5×10^5 cells per mouse), respectively. On the second day, the animals were grouped at random and drugs were administered accordingly. […] The drugs were given once every other day with a total of 6-8 treatments.
Determination of tumor weight and calculation of TIR (tumor inhibition ratio), were as follows. Body weight was recorded on the day after the last drug administration and animals were then sacrificed. The carcinoma was removed and weighed, and TIR (%) was calculated according the following formula: […]

[2] = Solubility and solution stability; assay type: physicochemical; details: pure AMP, white powder
[3] = test system: human leukemia K562 cells; assay: MTT assay, in vitro killing of K562 cells; assay type: cell-based; details: for IC50: Homo sapiens
Description: (1) AMP Na: An AMP-Na solution was prepared according to the method of Example 1 at an AMP:Na2CO3 ratio (w/w) of 5:3, which was then diluted 10 times with PBS (pH 6.5) to obtain the AMP-Na stock solution. The stock solution was further diluted by PBS (pH 7.4) to the concentration for cell exposure.
All the drug solutions described above were freshly prepared before use, and the final concentration for cell exposure was 100, 50, 25, 12.5, and 6.25 μg/ml, respectively.
K562 cells were cultured in RPMI1640 culture media supplemented with 10% calf serum, 100 U/ml of penicillin and streptomycin.
1. K562 cells at their log growth period were collected and centrifuged at 1,000 rpm for 5 minutes. The supernatant was discarded, and the cell density was adjusted to 1×10^5 cells/ml with RPMI 1640 cell culture media.
2. Ten microliter of the drug solution at various concentrations and 90 μl of the cell suspension or cell culture media were added to each well of the 96-well plate, followed by incubation in a CO2 incubator.
3. Cells were cultured for another 48-hour or 72-hour. Ten microliter of the MTT solution was added to per well 4 hours before the end of the experiment. Then, the solution was discarded and 100 μl of 10% SDS was added for termination of the experiment.
4. The absorbance of the solution was measured at 570 nm using a plate reader after being shaken on a shaker for 10 minutes. Results were printed out and recorded.
The inhibition ratio (%) was calculated from the following equation: […]
IC50 was calculated by linear regression of drug concentration v.s. cell inhibition ratio.

[4] = in vivo; details: both, Kunming, mouse
Description: Major organs of dead animals were removed, fixed, and subject to pathological study. […] Normal saline (36.25 ml) and 37% HCl (0.75 ml) were added to obtained the AMP stock solution with a concentration of 50 mg/ml and pH of 7.3 (concentrations of solvents including PEG 400, propanediol, and ethanol were 0.03, 0.0445, and 0.015 g/ml, respectively). […] The stock solution was further diluted in normal saline to the required concentration, and was i.v. or i.p. administered to mice at 0.2 ml/10 g bodyweight.
Both male and female Kuming mice of SPF grade, weighing 18-22 g, were used in the experiment. […] All data were analyzed by DAS software.

[5] = carboplatin experiment, carboplatin 25 mg/kg, ip alone

## O=c1[nH]cc(F)c(=O)[nH]1 [5-FU, reference compound]
[1]; 5-FU experiment, 5-FU 20 mg/kg, ip alone
  TIR (%): 45.55%
[1]; 5-FU experiment, 5-FU 20 mg/kg, ip alone, 11 days before sacrifice
  Tumor weight (g) (X ± SD): 1.08 ± 0.60 g

## O=C1c2c(O)cc(O)cc2O[C@H](c2cc(O)c(O)c(O)c2)[C@H]1O [AMP-DMSO, AMPelopsin, reference compound]
[2]
  Solubility in water: does not dissolve
[3]; K562, 72 h
  IC50: 4.09 µg/mL (≈ 12.8 µM)
[3]; K562, after drug exposure for 48 h and 72 h
  IC50: 32.3 µg/mL (≈ 101 µM)
[3]; K562, cell treatment for 48 h
  IC50: 32.3 µg/mL (≈ 101 µM)
[4]
  LD50 at 7 day: 1000 mg/kg
[4]; iv
  LD50 at 7 day: 1000 mg/kg

## O.O.O.O.O.O=C1c2c(O)cc([O-])cc2OC(c2cc([O-])c(O)c([O-])c2)C1[O-].[Na+].[Na+].[Na+].[Na+] (stereo not shown) [AMP-Na, pentahydrate of the AMPelopsin unsaturated sodium salt]
[1]; 5-FU experiment, AMP-Na 50 mg/kg, ip, alone or jointly with 5-FU
  TIR (%): 4.43%
[1]; 5-FU experiment, AMP-Na 50 mg/kg, ip, alone or jointly with 5-FU, 11 days
  Tumor weight (g) (X ± SD): 1.89 ± 0.75 g
[1]; 5-FU experiment, AMP-Na 75 mg/kg, ip, alone or jointly with 5-FU
  TIR (%): 31.28%
[1]; 5-FU experiment, AMP-Na 75 mg/kg, ip, alone or jointly with 5-FU, 11 days
  Tumor weight (g) (X ± SD): 1.36 ± 0.69 g
[1]; 5-FU experiment, AMP-Na 112 mg/kg, ip, alone or jointly with 5-FU, 11 days
  Tumor weight (g) (X ± SD): 1.32 ± 0.78 g
[1]; 5-FU experiment, AMP-Na 112 mg/kg, ip, alone or jointly with 5-FU, sodium salt
  TIR (%): 33.49%
[1]; 5-FU experiment, AMP-Na 167 mg/kg, ip, alone or jointly with 5-FU
  TIR (%): 4.45%
[1]; 5-FU experiment, AMP-Na 167 mg/kg, ip, alone or jointly with 5-FU, 11 days
  Tumor weight (g) (X ± SD): 1.89 ± 0.59 g
[1]; CTX experiment, AMP-Na 50 mg/kg, ip, alone or jointly with CTX
  T1R (%): 7.66%
[1]; CTX experiment, AMP-Na 50 mg/kg, ip, alone or jointly with CTX, 12 days
  Tumor weight (g) (X ± SD): 1.66 ± 0.84 g
[1]; CTX experiment, AMP-Na 75 mg/kg, ip, alone or jointly with CTX
  T1R (%): 6.84%
[1]; CTX experiment, AMP-Na 75 mg/kg, ip, alone or jointly with CTX, 12 days
  Tumor weight (g) (X ± SD): 1.67 ± 1.03 g
[1]; CTX experiment, AMP-Na 112 mg/kg, ip, alone or jointly with CTX
  T1R (%): −3.86%
[1]; CTX experiment, AMP-Na 112 mg/kg, ip, alone or jointly with CTX, 12 days
  Tumor weight (g) (X ± SD): 1.86 ± 1.21 g
[1]; CTX experiment, AMP-Na 167 mg/kg, ip, alone or jointly with CTX
  T1R (%): −16.25%
[1]; CTX experiment, AMP-Na 167 mg/kg, ip, alone or jointly with CTX, 12 days
  Tumor weight (g) (X ± SD): 2.08 ± 1.07 g
[1]; carboplatin experiment, AMP-Na 50 mg/kg, ip, alone or jointly with carboplatin
  TIR (%): 23.22%
[1]; carboplatin experiment, AMP-Na 50 mg/kg, ip, alone or jointly with carboplatin, 10 days
  Tumor weight (g) (X ± SD): 1.12 ± 0.30 g
[1]; carboplatin experiment, AMP-Na 75 mg/kg, ip, alone or jointly with carboplatin
  TIR (%): 3.99%
[1]; carboplatin experiment, AMP-Na 75 mg/kg, ip, alone or jointly with carboplatin, 10 days
  Tumor weight (g) (X ± SD): 1.40 ± 0.58 g
[1]; carboplatin experiment, AMP-Na 112 mg/kg, ip, alone or jointly with carboplatin
  TIR (%): 13.87%
[1]; carboplatin experiment, AMP-Na 112 mg/kg, ip, alone or jointly with carboplatin, 10 days
  Tumor weight (g) (X ± SD): 1.26 ± 0.69 g
[1]; carboplatin experiment, AMP-Na 167 mg/kg, ip, alone or jointly with carboplatin
  TIR (%): −7.47%
[1]; carboplatin experiment, AMP-Na 167 mg/kg, ip, alone or jointly with carboplatin, 10 days
  Tumor weight (g) (X ± SD): 1.57 ± 0.71 g
[1]; single administration, S-180 bearing mice
  Tumor suppression, AMP-Na alone: no or weak tumor suppression
[3]; 48 h
  IC50 in killing K562 cells: 29.56 µg/mL
[3]; 48 h and 72 h
  Killing effects towards K562 cells, AMP-Na compared with AMP-DMSO: no significant difference
[3]; 72 h
  IC50 in killing K562 cells: 4.23 µg/mL
[3]; after drug exposure for 48 h and 72 h
  IC50 in killing K562 cells: 29.56 µg/mL

## N.N.O=C([O-])C1(C(=O)[O-])CCC1.[Pt+2] [carboplatin, reference compound]
[1]; [5]
  Body weight (g) after: 18.57/25.75 g
  TIR (%): 49.52%
[1]; carboplatin experiment, carboplatin 25 mg/kg, ip alone, 10 days before sacrifice
  Tumor weight (g) (X ± SD): 0.74 ± 0.28 g
